The source of these data is patent US8575091B1, “Amylin analogues and pharmaceutical compositions thereof” (Novo Nordisk A/S, priority 2012, dated 2013).

SMILES strings stand for the structures. Read-outs that look alike come from different tables or passages of the source. Numbered stars: 1 amine (or outer) side, 2 acyl side, 3 side chain; on linkers, the order of the positions; unused ones are H or OH. Bridge positions count the residues as written; N and C are the ends. Side chains are listed from the residue outwards. Peptide text beside a SMILES is read from it. * marks the point of attachment. C20 diacid = O=C(O)CCCCCCCCCCCCCCCCCCC(=O)*; γGlu = O=C(O)[C@H](CCC(=O)[*:2])N[*:1]

Experiment [1] addresses T1, human amylin receptor (Homo sapiens, UniProt O60896+P30988).
T1 construct: expressed in transfected cells
T1 sequence (P30988 25-474): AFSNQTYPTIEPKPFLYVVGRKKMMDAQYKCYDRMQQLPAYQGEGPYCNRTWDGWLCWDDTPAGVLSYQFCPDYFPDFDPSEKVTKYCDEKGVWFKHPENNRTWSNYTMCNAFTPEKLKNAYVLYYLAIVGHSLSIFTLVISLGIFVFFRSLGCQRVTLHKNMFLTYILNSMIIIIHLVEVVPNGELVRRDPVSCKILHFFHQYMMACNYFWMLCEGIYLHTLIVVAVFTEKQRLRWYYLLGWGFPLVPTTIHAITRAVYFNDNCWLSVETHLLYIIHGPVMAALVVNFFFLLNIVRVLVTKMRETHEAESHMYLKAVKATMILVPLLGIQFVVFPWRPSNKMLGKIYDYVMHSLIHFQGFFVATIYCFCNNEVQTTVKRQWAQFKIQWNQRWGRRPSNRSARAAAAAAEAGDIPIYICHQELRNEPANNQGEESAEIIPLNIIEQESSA
T1 sequence (O60896 24-148 partner): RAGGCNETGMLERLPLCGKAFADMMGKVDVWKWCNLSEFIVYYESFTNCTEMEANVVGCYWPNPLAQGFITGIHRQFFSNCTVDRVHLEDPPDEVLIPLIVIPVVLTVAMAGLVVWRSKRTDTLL
The experiment is described as follows: Assay (V) binding to the human amylin receptor (SPA, 125I-rat amylin). Particulars: for IC50: human amylin receptor membranes, SPA, read-out: hAmylin-R bind IC50. Put shortly:
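IC50, taken as receptor affinity, came from one-site binding competition analysis of scintillation proximity counts. Amylin 3(a)/CRE-luc cell membranes (35 ng/μL final) were mixed with SPA beads (0.05 mg/well) in 50 mM Hepes pH 7.4 containing CaCl2, MgCl2, 0.1% OA and 0.02% Tween20.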

The target in experiment [2] is T2, human amylin receptor (amylin 3(a) receptor: human calcitonin receptor + RAMP-3) (Homo sapiens, UniProt O60896+P30988).
T2 construct: expressed in transfected cells
T2 sequence (P30988 25-474): T1 sequence (P30988 25-474)
T2 sequence (O60896 24-148 partner): T1 sequence (O60896 24-148 partner)
Nature of the experiment: Assay (II)a functional assay, human amylin receptor (CRE luciferase, BHK cells). Format: cell-based. Particulars: for EC50: read-out: hAmylin-R funct. EC50.

Experiment [3] has as its target T3, human calcitonin receptor (Homo sapiens, UniProt P30988).
T3 construct: expressed in transfected cells
T3 sequence (P30988 25-474): T1 sequence (P30988 25-474)
The experiment is described as follows: Assay (VII) binding to the human calcitonin receptor (SPA, 125I-Calcitonin).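 Also: cell membranes coupled to SPA beads, competitive displacement read by scintillation counting, IC50 derived from a one-site competition fit as a measure of receptor affinity.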 Particulars: read-out: hCTR bind IC50.

For experiment [4], the target named is T3, human calcitonin receptor. Nature of the experiment: Assay (II)a functional assay, human calcitonin receptor (CRE luciferase, BHK cells).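 Also: luminescence from a CRE-driven luciferase reporter, read by single photon counting after cells were exposed to test samples for 3 h at 37 °C under 5% CO2.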 Format: cell-based. Particulars: read-out: hCTR funct. EC50.
[5] abbreviates: functional assay, human amylin receptor.
[6] abbreviates: Table 6, human functional selectivity (hCTR EC50 / hAmylin-R EC50).
The mark [7] stands for this setting: Table 6a, human functional selectivity (hCTR EC50 / hAmylin-R EC50), at least 5.
Where [8] appears, read: Table 6j, hCTR funct. EC50 / hAmylin-R funct. EC50.
[9] abbreviates: Table 6k, hCTR funct. EC50 / hAmylin-R funct. EC50.

Turning to `CC[C@H](C)[C@H](NC(=O)[C@H](C)NC(=O)CNC(=O)[C@H](Cc1ccccc1)NC(=O)[C@H](CC(N)=O)NC(=O)[C@@H]1CCCN1C(=O)[C@H](CO)NC(=O)[C@H](CO)NC(=O)[C@H](Cc1c[nH]cn1)NC(=O)[C@H](CCCNC(=N)N)NC(=O)[C@H](CC(C)C)NC(=O)[C@H](Cc1ccccc1)NC(=O)[C@H](CC(N)=O)NC(=O)[C@H](C)NC(=O)[C@H](CC(C)C)NC(=O)[C@H](CCCNC(=N)N)NC(=O)[C@H](CCC(N)=O)NC(=O)[C@@H](NC(=O)[C@H](C)NC(=O)[C@@H]1CSSC[C@H](NC(=O)[C@@H](N)CCCCNC(=O)CC[C@H](NC(=O)CCCCCCCCCCCCCCCCCCC(=O)O)C(=O)O)C(=O)N[C@@H](CC(N)=O)C(=O)N[C@@H]([C@@H](C)O)C(=O)N[C@@H](C)C(=O)N[C@@H]([C@@H](C)O)C(=O)N1)[C@@H](C)O)C(=O)N1CCC[C@H]1C(=O)N[C@@H](CO)C(=O)N[C@@H](CO)C(=O)N[C@H](C(=O)N[C@@H](CC(N)=O)C(=O)N[C@H](C(=O)NCC(=O)N[C@@H](CO)C(=O)N[C@@H](Cc1c[nH]cn1)C(=O)N[C@H](C(=O)N[C@@H](Cc1ccc(O)cc1)C(N)=O)[C@@H](C)O)C(C)C)[C@@H](C)O` [Example 60], the IC50 in experiment [1] stood at 0.695 nM; in experiment [3], 31.4 nM. The concentration for a half-maximal effect (EC50) in experiment [2] (setting [5]) was found to be 0.351 nM; in experiment [4], 5.36 nM.
In the case of `CC[C@H](C)[C@H](NC(=O)[C@H](C)NC(=O)CNC(=O)[C@H](Cc1ccccc1)NC(=O)[C@H](CC(N)=O)NC(=O)[C@@H]1CCCN1C(=O)[C@H](CO)NC(=O)[C@H](CO)NC(=O)[C@H](Cc1c[nH]cn1)NC(=O)[C@H](CCCNC(=N)N)NC(=O)[C@H](CC(C)C)NC(=O)[C@H](Cc1ccccc1)NC(=O)[C@H](CCC(=O)O)NC(=O)[C@H](C)NC(=O)[C@H](CC(C)C)NC(=O)[C@H](CCCNC(=N)N)NC(=O)[C@H](CCC(N)=O)NC(=O)[C@@H](NC(=O)[C@H](C)NC(=O)[C@@H]1CSSC[C@H](NC(=O)[C@@H](N)CCCCNC(=O)CC[C@H](NC(=O)CC[C@H](NC(=O)CCCCCCCCCCCCCCCCCCC(=O)O)C(=O)O)C(=O)O)C(=O)N[C@@H](CC(N)=O)C(=O)N[C@@H]([C@@H](C)O)C(=O)N[C@@H](C)C(=O)N[C@@H]([C@@H](C)O)C(=O)N1)[C@@H](C)O)C(=O)N1CCC[C@H]1C(=O)N[C@@H](CO)C(=O)N[C@@H](CO)C(=O)N[C@H](C(=O)N[C@@H](CC(N)=O)C(=O)N[C@H](C(=O)NCC(=O)N1CCC[C@H]1C(=O)N[C@@H](CCC(=O)O)C(=O)N[C@H](C(=O)N1CCC[C@H]1C(N)=O)[C@@H](C)O)C(C)C)[C@@H](C)O` [Example 125] (H-K([γGlu-γGlu-C20 diacid])CNTATCATQRLAEFLRHSSPNFGAIPSSTNVGPETP-NH2; disulfide 2-7), the IC50 in experiment [1] amounted to 0.533 nM; in experiment [3] it was 0.226 nM. For the same compound, the “Ratio hCT/hAmylin binding” value in experiment [1] (human binding ratio, included for comparison) is 0.4. In experiment [2] (setting [6]), the “Ratio hCT/hAmylin funct.” value turned out to be 0.8. Further, the 50% effective concentration (EC50) is 0.132 nM in experiment [2] (setting [5]) and 0.102 nM in experiment [4].
`CC[C@H](C)[C@H](NC(=O)[C@H](C)NC(=O)CNC(=O)[C@H](Cc1ccccc1)NC(=O)[C@H](CC(N)=O)NC(=O)[C@@H]1CCCN1C(=O)[C@H](CO)NC(=O)[C@H](CO)NC(=O)[C@H](Cc1c[nH]cn1)NC(=O)[C@H](CCCNC(=N)N)NC(=O)[C@H](CC(C)C)NC(=O)[C@H](Cc1ccccc1)NC(=O)[C@H](CC(N)=O)NC(=O)[C@H](C)NC(=O)[C@H](CC(C)C)NC(=O)[C@H](CCCNC(=N)N)NC(=O)[C@H](CCC(N)=O)NC(=O)[C@@H](NC(=O)[C@H](C)NC(=O)[C@@H]1CSSC[C@H](NC(=O)[C@@H](N)CCCCNC(=O)CC[C@H](NC(=O)CCCCCCCCCCCCCCCCC(=O)O)C(=O)O)C(=O)N[C@@H](CC(N)=O)C(=O)N[C@@H]([C@@H](C)O)C(=O)N[C@@H](C)C(=O)N[C@@H]([C@@H](C)O)C(=O)N1)[C@@H](C)O)C(=O)N1CCC[C@H]1C(=O)N[C@@H](CO)C(=O)N[C@@H](CO)C(=O)N[C@H](C(=O)N[C@@H](CC(N)=O)C(=O)N[C@H](C(=O)NCC(=O)N[C@@H](Cc1c[nH]cn1)C(=O)N[C@@H](CC(N)=O)C(=O)N[C@H](C(=O)N[C@@H](Cc1ccc(O)cc1)C(N)=O)[C@@H](C)O)C(C)C)[C@@H](C)O` [Example 113]: the IC50 was determined as 0.382 nM in experiment [1] and 22.7 nM in experiment [3]. Also, the EC50 in experiment [2] (setting [5]) worked out at 0.096 nM; in experiment [4] it was 5.85 nM.
Regarding `CC[C@H](C)[C@H](NC(=O)[C@H](C)NC(=O)CNC(=O)[C@H](Cc1ccccc1)NC(=O)[C@H](CC(N)=O)NC(=O)[C@@H]1CCCN1C(=O)[C@H](CO)NC(=O)[C@H](CO)NC(=O)[C@H](Cc1c[nH]cn1)NC(=O)[C@H](CCCNC(=N)N)NC(=O)[C@H](CC(C)C)NC(=O)[C@H](Cc1ccccc1)NC(=O)[C@H](CC(N)=O)NC(=O)[C@H](C)NC(=O)[C@H](CC(C)C)NC(=O)[C@H](CCCNC(=N)N)NC(=O)[C@H](CCC(N)=O)NC(=O)[C@@H](NC(=O)[C@H](C)NC(=O)[C@@H]1CSSC[C@H](NC(=O)[C@H](CCCNC(=N)N)NC(=O)CNC(=O)CC[C@H](NC(=O)CCCCCCCCCCCCCCCCCCC(=O)O)C(=O)O)C(=O)N[C@@H](CC(N)=O)C(=O)N[C@@H]([C@@H](C)O)C(=O)N[C@@H](C)C(=O)N[C@@H]([C@@H](C)O)C(=O)N1)[C@@H](C)O)C(=O)N1CCC[C@H]1C(=O)N[C@@H](CO)C(=O)N[C@@H](CO)C(=O)N[C@H](C(=O)N[C@@H](CC(N)=O)C(=O)N[C@H](C(=O)NCC(=O)N[C@@H](CO)C(=O)N[C@@H](Cc1c[nH]cn1)C(=O)N[C@H](C(=O)N[C@@H](Cc1ccc(O)cc1)C(N)=O)[C@@H](C)O)C(C)C)[C@@H](C)O` [Example 47] ({C20 diacid-γGlu}-GRCNTATCATQRLANFLRHSSPNFGAIPSSTNVGSHTY-NH2; disulfide 3-8), the IC50 in experiment [1] was 0.344 nM; in experiment [3], 15.5 nM. Besides, the “Ratio hCT/hAmylin funct.” value in experiment [2] (setting [6]), in experiment [2] (setting [7]), in experiment [2] (setting [8]) and in experiment [2] (setting [9]) was 6.0 in each case. For the same compound, the figures for the EC50 in experiment [2] (setting [5]) and in experiment [4] were 0.222 nM and 1.32 nM, respectively.
For `CC[C@H](C)[C@H](NC(=O)[C@H](C)NC(=O)CNC(=O)[C@H](Cc1ccccc1)NC(=O)[C@H](CC(N)=O)NC(=O)[C@@H]1CCCN1C(=O)[C@H](CO)NC(=O)[C@H](CO)NC(=O)[C@H](Cc1c[nH]cn1)NC(=O)[C@H](CCCNC(=N)N)NC(=O)[C@H](CC(C)C)NC(=O)[C@H](Cc1ccccc1)NC(=O)[C@H](CCC(=O)O)NC(=O)[C@H](C)NC(=O)[C@H](CC(C)C)NC(=O)[C@H](CCCNC(=N)N)NC(=O)[C@H](CCC(N)=O)NC(=O)[C@@H](NC(=O)[C@H](C)NC(=O)[C@@H]1CSSC[C@H](NC(=O)[C@H](CCCCN)NC(=O)CC[C@H](NC(=O)CCCCCCCCCCCCCCCCCCC(=O)O)C(=O)O)C(=O)N[C@@H](CC(N)=O)C(=O)N[C@@H]([C@@H](C)O)C(=O)N[C@@H](C)C(=O)N[C@@H]([C@@H](C)O)C(=O)N1)[C@@H](C)O)C(=O)N1CCC[C@H]1C(=O)N[C@@H](CO)C(=O)N[C@@H](CO)C(=O)N[C@H](C(=O)N[C@@H](CC(N)=O)C(=O)N[C@H](C(=O)NCC(=O)N[C@@H](CCCCN)C(=O)N[C@@H](CC(N)=O)C(=O)N[C@H](C(=O)N[C@@H](Cc1ccc(O)cc1)C(N)=O)[C@@H](C)O)C(C)C)[C@@H](C)O` [Example 36] ({C20 diacid-γGlu}-KCNTATCATQRLAEFLRHSSPNFGAIPSSTNVGKNTY-NH2; disulfide 2-7), the concentration for half-maximal inhibition (IC50) amounted to 0.403 nM in experiment [1] and 6.31 nM in experiment [3]. The “Ratio hCT/hAmylin funct.” value in experiment [2] (setting [6]) is on record as 6.8; in experiment [2] (setting [7]) it was 6.8; in experiment [2] (Table 6i, hCTR funct. EC50 / hAmylin-R funct. EC50) it was 6.8; in experiment [2] (setting [8]) it was 6.8; in experiment [2] (setting [9]), 6.8. In addition, the EC50 in experiment [2] (Table 6i, human amylin receptor functional) came to 0.189 nM; in experiment [4], 1.28 nM.
